Source: patent US9538782B2, “Inhibition of sensory irritation during consumption of smokeless tobacco products using a combinatorial approach” (Altria Client Services LLC, priority 2013, dated 2017)

How the values were obtained:
TRPV1 sensory channel = TRPV1 sensory channel (Homo sapiens, UniProt Q8NER1); assay: TRPV1 activation in human tissue culture cells expressing the TRPV1 sensory channel; format: cell-based; conditions: activator capsaicin or camphor applied co-incident with curcumin or 5 minutes after curcumin
Chain of TRPV1 sensory channel (Q8NER1 whole entry): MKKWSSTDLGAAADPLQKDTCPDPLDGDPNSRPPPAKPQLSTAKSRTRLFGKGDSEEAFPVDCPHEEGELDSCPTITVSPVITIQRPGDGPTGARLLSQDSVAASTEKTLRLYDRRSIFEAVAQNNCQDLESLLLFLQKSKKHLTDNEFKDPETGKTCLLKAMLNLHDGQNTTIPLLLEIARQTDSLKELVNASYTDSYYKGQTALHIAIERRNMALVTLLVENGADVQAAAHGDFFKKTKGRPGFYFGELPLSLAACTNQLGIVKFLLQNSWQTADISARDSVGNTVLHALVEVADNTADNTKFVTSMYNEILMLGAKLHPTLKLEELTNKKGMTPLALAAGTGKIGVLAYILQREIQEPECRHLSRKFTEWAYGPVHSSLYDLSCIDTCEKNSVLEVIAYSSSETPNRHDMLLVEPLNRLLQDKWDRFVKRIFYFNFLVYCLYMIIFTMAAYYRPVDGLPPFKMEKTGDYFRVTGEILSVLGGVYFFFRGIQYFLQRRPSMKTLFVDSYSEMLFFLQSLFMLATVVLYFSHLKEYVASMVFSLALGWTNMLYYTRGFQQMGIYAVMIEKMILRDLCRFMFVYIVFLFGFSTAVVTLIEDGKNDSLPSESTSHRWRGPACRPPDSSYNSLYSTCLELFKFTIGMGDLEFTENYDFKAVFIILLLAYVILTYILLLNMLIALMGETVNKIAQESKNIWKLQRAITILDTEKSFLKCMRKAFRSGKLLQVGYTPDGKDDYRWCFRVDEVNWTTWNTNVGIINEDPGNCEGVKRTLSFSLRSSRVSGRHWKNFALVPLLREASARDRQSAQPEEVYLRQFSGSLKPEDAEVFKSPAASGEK
Protocol: It will be further understood by those skilled in the art that active ingredients appropriate for use in the present smokeless tobacco product may function as antagonists to one or more receptors and/or channels and agonists to one or more receptors and/or channels. Compounds known to activate the TRPV1 channel were applied to human tissue culture cells expressing the TRPV1 sensory channel either co-incident with the application of curcumin or following the application of curcumin by 5 minutes. Camphor and capsaicin are both known activators of the TRPV1 channel. However, these two compounds activate the sensory channel by different mechanisms. Curcumin, on the other hand, is a potent antagonist of the TPRV1 sensory channel. When capasaicin or camphor were added to cells expressing the TRPV1 sensory channel with curcumin, TRPV1 sensory activation was inhibited.

human subjects = assay: human subject study of camphor added to pouches of smokeless tobacco; format: in vivo
Description: Nicotine, for example, is an agonist of the nicotinic acetylcholine receptors, and can produce the sensory irritation, such as burning or stinging, in the mouth or throat, as well as the gastrointestinal discomfort sometimes associated with smokeless tobacco products.

sensory nerve fibers = conditions: isolated mouse trachea model; Kichco et al. 2007; cited from earlier work

SMILES | TRPV1 sensory activation (TRPV1 sensory channel) | sensation of burning at the pouch location and along the path of saliva that had been in contact with the pouch (human subjects) | activation of sensory nerve fibers induced by nicotine (sensory nerve fibers)
COc1cc(/C=C/C(=O)CC(=O)/C=C/c2ccc(O)c(OC)c2)ccc1O [curcumin] | inhibited | – | –
CC12CCC(CC1=O)C2(C)C (stereo not drawn) [camphor] | – | reduced the sensation of burning | effectively inhibit
